How the values were obtained:
Type in all cases: physicochemical
[1] = Stability of the 1-napsylate salt; conditions: two weeks
[2] = Stability of AN-168 dry salt by HPLC at 5, 20 and 40° C.
Method: (§1) HPLC analyses were performed on a Water 2695 Separations Module, using a Luna C18 (2) 50 mm×4.6 mm×3 um column, a 5 μl injection volume and a 2487 dual wavelength detector under the following instrumental conditions: Mobile phase A: 0.1% formic acid; Mobile phase B: acetonitrile; Flow rate: 0.5 ml per minute; Mobile phase gradient: 0.0 minutes 90% A, 10% B, 14.0 minutes 20% A, 80% B, 15.0 minutes 90% A, 10% B and 20.0 minutes 90% A, 10% B; Run time: 20 minutes; Detection: UV at 254 nm; Column temperature: 40° C.
To determine the stability of the HCl salt of the GABA conjugate (AN-168), prepared according to the procedure described in Example 2 above, three samples of the salt were studied by HPLC analyses. Thus, samples of AN-168 as dry salt were kept at 5° C., 20° C. and 40° C. over a period of 24 day and were analyzed by HPLC for determining the appearance of degradation products.

[3] = Water content of AN-168 by Karl Fischer (KF) titration
Method: (§2) Water absorption and content measurements were carried out using a Karl Fischer (KF) titrator. Karl Fischer titration is a classic method in analytical chemistry that uses calometric titration to determine the moisture content of a sample, which is specific to water. The titration reaction taking place in the presence of a base and 50:50 methanol:dichloromethane as a titration solvent.
The Karl Fischer chemical reaction takes place between iodine and water with the reactants being in a 1 to 1 ratio between iodine and water.
(§3) The accurately weighted samples (near 100 mg) of the tested compound were placed in the titrator to determine the amount of sample required for measuring 10-250 μg of water, and the water content was calculated accordingly.

[4] = Stability of the free base of the conjugate by HPLC at 20 and 40° C.
Method: as §1
The stability of neat free base of the chemical conjugate was determined by performing an HPLC analysis daily during a period of 24 days and determining the appearance of its degradation products perphenazine and GABA. Samples of the neat free base of the conjugate were collected after deprotection of AN-197 with TFA, as described in the preparation of the maleate and oxalate salts, using the general procedure described above in Example 9, were dissolved in the mobile phase solution which was used in the HPLC analysis (2:1 acetonitrile:water, pH 8) and were kept to either at 20° C. or at 40° C.

[5] = Chemical stability of the oxalate salt by HPLC, open container; conditions: for perphenazine content (HPLC) / purity of the salt (HPLC): open container at room temperature
Method: as §1
(§4) A sample of the oxalate addition salt was kept in an open container at room temperature for a five-week period (about 840 hours) and analyzed thereafter. The hygroscopicity of the oxalate salt was determined by following the water content of the salt using the Karl Fischer (KF) titration analysis method and the chemical stability of the oxalate salt was determined by following the appearance of the degradation product perphenazine in HPLC analysis.

[6] = Hygroscopicity of the oxalate salt by Karl Fischer titration; conditions: open container at room temperature
Method: as §2, §3, §4

[7] = sealed and open container at room temperature
[8] = dry salt kept at 5° C., 0 hours
[9] = dry salt kept at 5° C., 24 hours
[10] = dry salt kept at 5° C., 48 hours
[11] = dry salt kept at 5° C., 120 hours
[12] = dry salt kept at 5° C., 144 hours
[13] = dry salt kept at 5° C., 336 hours
[14] = dry salt kept at 5° C., 456 hours
[15] = dry salt kept at 5° C., 504 hours
[16] = dry salt kept at 5° C., 576 hours
[17] = dry salt kept at 20° C., 0 hours
[18] = dry salt kept at 20° C., 24 hours
[19] = dry salt kept at 20° C., 48 hours
[20] = dry salt kept at 20° C., 120 hours
[21] = dry salt kept at 20° C., 144 hours
[22] = dry salt kept at 20° C., 336 hours
[23] = dry salt kept at 20° C., 456 hours
[24] = dry salt kept at 20° C., 504 hours
[25] = dry salt kept at 20° C., 576 hours
[26] = dry salt kept at 40° C., 0 hours
[27] = dry salt kept at 40° C., 24 hours
[28] = dry salt kept at 40° C., 48 hours
[29] = dry salt kept at 40° C., 120 hours
[30] = dry salt kept at 40° C., 144 hours
[31] = dry salt kept at 40° C., 336 hours
[32] = dry salt kept at 40° C., 456 hours
[33] = dry salt kept at 40° C., 504 hours
[34] = dry salt kept at 40° C., 576 hours
[35] = in HPLC mobile phase (2:1 acetonitrile:water, pH 8), kept at 20° C., 0 hours
[36] = in HPLC mobile phase (2:1 acetonitrile:water, pH 8), kept at 40° C., 0 hours
[37] = in HPLC mobile phase, kept at 20° C., 24 hours
[38] = in HPLC mobile phase, kept at 20° C., 168 hours
[39] = in HPLC mobile phase, kept at 20° C., 336 hours
[40] = in HPLC mobile phase, kept at 20° C., 504 hours
[41] = in HPLC mobile phase, kept at 20° C., 576 hours
[42] = in HPLC mobile phase, kept at 40° C., 24 hours
[43] = in HPLC mobile phase, kept at 40° C., 168 hours
[44] = in HPLC mobile phase, kept at 40° C., 336 hours
[45] = in HPLC mobile phase, kept at 40° C., 504 hours
[46] = in HPLC mobile phase, kept at 40° C., 576 hours
[47] = end of five-week period (about 840 hours)

Structure (SMILES): NCCCC(=O)OCCN1CCN(CCCN2c3ccccc3Sc3ccc(Cl)cc32)CC1.O=S(=O)(O)c1cccc2ccccc12.O=S(=O)(O)c1cccc2ccccc12.O=S(=O)(O)c1cccc2ccccc12 [1-napsylate salt]
- degradation to perphenazine [1, 7]: minimal degradation
- stability in words [1, 7]: stable
- stability in words ([1]; stored at both −20° C. and 0° C. under nitrogen in a closed container): highly stable

Structure (SMILES): Cl.NCCCC(=O)OCCN1CCN(CCCN2c3ccccc3Sc3ccc(Cl)cc32)CC1 [AN-168, Perphenazine 4-Aminobutyrate Hydrochloride]
- AN-168 % area [2, 8]: 98.64 % area
- Perphenazine % area [2, 8]: 1.36 % area
- AN-168 % area [2, 9]: 98.57 % area
- Perphenazine % area [2, 9]: 1.43 % area
- AN-168 % area [2, 10]: 98.52 % area
- Perphenazine % area [2, 10]: 1.48 % area
- AN-168 % area [2, 11]: 98.40 % area
- Perphenazine % area [2, 11]: 1.60 % area
- AN-168 % area [2, 12]: 98.13 % area
- Perphenazine % area [2, 12]: 1.87 % area
- AN-168 % area [2, 13]: 97.21 % area
- Perphenazine % area [2, 13]: 2.03 % area
- AN-168 % area [2, 14]: 97.95 % area
- Perphenazine % area [2, 14]: 2.05 % area
- AN-168 % area [2, 15]: 97.15 % area
- Perphenazine % area [2, 15]: 2.85 % area
- AN-168 % area [2, 16]: 96.14 % area
- Perphenazine % area [2, 16]: 3.49 % area
- AN-168 % area [2, 17]: 98.64 % area
- Perphenazine % area [2, 17]: 1.36 % area
- AN-168 % area [2, 18]: 98.42 % area
- Perphenazine % area [2, 18]: 1.58 % area
- AN-168 % area [2, 19]: 98.31 % area
- Perphenazine % area [2, 19]: 1.69 % area
- AN-168 % area [2, 20]: 97.68 % area
- Perphenazine % area [2, 20]: 2.32 % area
- AN-168 % area [2, 21]: 97.26 % area
- Perphenazine % area [2, 21]: 2.74 % area
- AN-168 % area [2, 22]: 96.26 % area
- Perphenazine % area [2, 22]: 3.74 % area
- AN-168 % area [2, 23]: 95.58 % area
- Perphenazine % area [2, 23]: 4.51 % area
- AN-168 % area [2, 24]: 94.60 % area
- Perphenazine % area [2, 24]: 5.40 % area
- AN-168 % area [2, 25]: 93.80 % area
- Perphenazine % area [2, 25]: 5.87 % area
- AN-168 % area [2, 26]: 98.64 % area
- Perphenazine % area [2, 26]: 1.36 % area
- AN-168 % area [2, 27]: 97.97 % area
- Perphenazine % area [2, 27]: 2.03 % area
- AN-168 % area [2, 28]: 97.70 % area
- Perphenazine % area [2, 28]: 2.30 % area
- AN-168 % area [2, 29]: 96.95 % area
- Perphenazine % area [2, 29]: 3.05 % area
- AN-168 % area [2, 30]: 97.03 % area
- Perphenazine % area [2, 30]: 2.97 % area
- AN-168 % area [2, 31]: 96.69 % area
- Perphenazine % area [2, 31]: 3.31 % area
- AN-168 % area [2, 32]: 95.55 % area
- Perphenazine % area [2, 32]: 4.45 % area
- AN-168 % area [2, 33]: 95.62 % area
- Perphenazine % area [2, 33]: 3.92 % area
- AN-168 % area [2, 34]: 95.55 % area
- Perphenazine % area [2, 34]: 4.06 % area
- stability in words ([2]; over time, at each of the tested temperatures (5, 20, 40° C.)): degraded into perphenazine and GABA and/or underwent trans-esterification to perphenazine and 2-pyrrolidinone
- hygroscopicity ([3]; final product): hygroscopic
- water content (KF) ([3]; final product, recrystallized): 1.05 % weight/weight
- water content (KF) ([3]; repeated procedure with additional 2 hours at 40° C.): 12.5 % weight/weight

Structure (SMILES): NCCCC(=O)OCCN1CCN(CCCN2c3ccccc3Sc3ccc(Cl)cc32)CC1 [Free base]
- stability in words ([4]; at both temperatures (20° C. and 40° C.)): highly unstable
- relative peak area degradation to perphenazine ([4]; first 24 hours, sample kept at 20° C.): approximately 5%
- free base degraded to perphenazine ([4]; first 24 hours, sample kept at 40° C.): more than 20%
- Free base % area [4, 35]: 98.50 % area
- Perphenazine % area [4, 35]: 1.50 % area
- Free base % area [4, 36]: 98.50 % area
- Perphenazine % area [4, 36]: 1.50 % area
- Free base % area [4, 37]: 95.05 % area
- Perphenazine % area [4, 37]: 4.95 % area
- Free base % area [4, 38]: 74.71 % area
- Perphenazine % area [4, 38]: 25.29 % area
- Free base % area [4, 39]: 61.63 % area
- Perphenazine % area [4, 39]: 38.37 % area
- Free base % area [4, 40]: 53.35 % area
- Perphenazine % area [4, 40]: 46.65 % area
- Free base % area [4, 41]: 47.23 % area
- Perphenazine % area [4, 41]: 52.77 % area
- Free base % area [4, 42]: 78.74 % area
- Perphenazine % area [4, 42]: 21.26 % area
- Free base % area [4, 43]: 20.09 % area
- Perphenazine % area [4, 43]: 79.91 % area
- Free base % area [4, 44]: 6.12 % area
- Perphenazine % area [4, 44]: 93.88 % area
- Free base % area [4, 45]: 5.52 % area
- Perphenazine % area [4, 45]: 94.48 % area
- Free base % area [4, 46]: 3.93 % area
- Perphenazine % area [4, 46]: 96.07 % area

Structure (SMILES): NCCCC(=O)OCCN1CCN(CCCN2c3ccccc3Sc3ccc(Cl)cc32)CC1.O=C(O)C(=O)O.O=C(O)C(=O)O.O=C(O)C(=O)O [oxalate addition salt]
- stability and hygroscopicity in words ([5]; as compared to the HCl salt (AN-168)): more stable and less hygroscopic
- perphenazine content (HPLC) [5, 47]: 1.71%
- purity of the salt (HPLC) [5, 47]: 94.61%
- perphenazine content (HPLC) ([5]; initial): 0.75%
- purity of the salt (HPLC) ([5]; initial): 98.05%
- water content (KF) [6, 47]: 1.90 weight percents
- water content (KF) ([6]; initial): 1.36 weight percents
